Tested on: L. monocytogenes
Assay: Disk diffusion assay of antibiotic susceptibility before and after 6 serial washes in PBS (Example 9)
Type: cell-based
Details: disk content per antimicrobial, average of 6 experiments (SD)
Description: The disk diffusion assay was used to determine the susceptibility of vegetative forms of L. monocytogenes, before and after 6 serial 20-min washes in PBS. (See Bauer, A, Kirby, W, Sherris, J, Turck, M, 1966 Antibiotic Susceptibility Testing by a Standardize Single Disk Method, Amer J Clin Path 36:41-44).
Data are averages of 6 experiments. SD is in parentheses.

[1] = After 6 Washes (20 min each in PBS), L. monocytogenes
[2] = Before Washing, vegetative L. monocytogenes

Row | Compound | Diameter of Zone of Inhibition [1] | Diameter of Zone of Inhibition [2]
1 | CC1(C)S[C@@H]2[C@H](NC(=O)[C@H](N)c3ccccc3)C(=O)N2[C@H]1C(=O)O [Ampicillin] | 30 mm (3.6) | 32 mm (3.8)
2 | NC[C@H]1O[C@H](O[C@H]2[C@H](O)[C@@H](O[C@H]3O[C@H](CO)[C@@H](O)[C@H](N)[C@H]3O)[C@H](N)C[C@@H]2N)[C@H](O)[C@@H](O)[C@@H]1O [Kanamycin] |  | 11 (2.66) mm
3 | CN(C)[C@@H]1C(O)=C(C(N)=O)C(=O)[C@@]2(O)C(O)=C3C(=O)c4c(O)cccc4[C@@](C)(O)[C@H]3C[C@@H]12 [Tetracycline] | 45 (6.3) mm | 40 (5.0) mm
4 | CN[C@H](CC(C)C)C(=O)N[C@H]1C(=O)N[C@@H](CC(N)=O)C(=O)N[C@H]2C(=O)N[C@H]3C(=O)N[C@H](C(=O)N[C@H](C(=O)O)c4cc(O)cc(O)c4-c4cc3ccc4O)[C@H](O)c3ccc(c(Cl)c3)Oc3cc2cc(c3O[C@@H]2O[C@H](CO)[C@@H](O)[C@H](O)[C@H]2O[C@H]2C[C@](C)(N)[C@H](O)[C@H](C)O2)Oc2ccc(cc2Cl)[C@H]1O [Vancomycin] | 30 (4.2) mm | 25 (3.7) mm
5 | Polymixin B |  | 0 mm
